Data: patent US5545547A, “Enzymes as agricultural chemical adjuvants” (priority 1992, dated 1996)

Columns and labels:
Format in all cases: in vivo
Giant Fox Tail [1] = experiment: Greenhouse multispecies herbicide screen with/without P. mendocina enzyme
Procedure: (§1) Several plant species including weeds and crops are used in these experiments.
A number of herbicides from various chemical classes were compared in a multispecies screen for percent chlorosis, necrosis and vigor reduction both with and without application of the enzyme from Pseudomonas mendocina ATCC 53552 described earlier. […] Two different enzyme concentrations were used: 0.5 mg/ml (HE) and 0.05 mg/ml (LE) and applied at the rate of 40 gallons/acre. All spraying solutions were at pH 10 and contained 100 mm sodium phosphate each. Ratings were done at 6 and 12 days after the treatment. All the experiments were carried out in a greenhouse.
Chlorosis--figures represent percent of plants showing chlorosis.
Necrosis--figures represent percent of plants showing necrosis.
Vigor--figures represent percent of plants showing decreased vigor.
Phytotoxicity--figures represent the average percent of chlorosis, necrosis, and vigor for a given sample.

Turnip = experiment: as above; conditions: one week after treatment
In short: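 In the greenhouse, herbicides went on at the recommended dose, 10% or 40% of it, with or without P. mendocina ATCC 53552 enzyme at 0.5 (HE) or 0.05 mg/ml (LE), sprayed at 40 gallons/acre at pH 10 in 100 mm sodium phosphate. Percent plants with chlorosis, necrosis or lower vigor was rated at 6 and 12 days; phytotoxicity is their average. In a variant, enzyme went on 2 h before the herbicide, rated at two weeks.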

various plants = experiment: Greenhouse multispecies herbicide screen, statements on all tested plants; conditions: High HYVAR; all other tested conditions; after two weeks
Text: as §1
A number of herbicides from various chemical classes were compared in a multispecies screen for percent chlorosis, necrosis and vigor reduction both with and without application of the enzyme from Pseudomonas mendocina ATCC 53552 described earlier. The herbicides were applied to various plants at the manufacturers recommended doses and at 10% and 40% of the recommended dose. Two different enzyme concentrations were used: 0.5 mg/ml (HE) and 0.05 mg/ml (LE) and applied at the rate of 40 gallons/acre. All spraying solutions were at pH 10 and contained 100 mm sodium phosphate each. […] All the experiments were carried out in a greenhouse.

Giant Fox Tail [2] = experiment: Greenhouse multispecies herbicide screen with/without P. mendocina enzyme; conditions: HYVAR 18%, two weeks after treatment
[3] = HYVAR 10% dose, High Enzyme, one week after treatment
[4] = HYVAR 10% dose, Low Enzyme, one week after treatment
[5] = HYVAR 10% dose, No Enzyme, one week after treatment
[6] = HYVAR 18%, High Enzyme, two weeks after treatment
[7] = HYVAR 18%, Low Enzyme, two weeks after treatment
[8] = HYVAR 18%, No Enzyme, two weeks after treatment
[9] = HYVAR 40% dose, High Enzyme, one week after treatment
[10] = HYVAR 40% dose, Low Enzyme, one week after treatment
[11] = HYVAR 40% dose, No Enzyme, one week after treatment
[12] = HYVAR 100% dose, No Enzyme, one week after treatment

Structure (SMILES): CCC(C)n1c(=O)[nH]c(C)c(Br)c1=O (stereo not drawn) [HYVAR, 5-bromo-6-methyl-3-(1-methylpropyl)-2,4-(1H,3H)-pyrimidinedione]
- CHL (chlorosis) (Giant Fox Tail [1]; [3]): 18%
- NEC (necrosis) (Giant Fox Tail [1]; [3]): 18%
- PHY (phytotoxicity) (Giant Fox Tail [1]; [3]): 22%
- VIG (vigor) (Giant Fox Tail [1]; [3]): 30%
- CHL (chlorosis) (Giant Fox Tail [1]; [4]): 50%
- NEC (necrosis) (Giant Fox Tail [1]; [4]): 30%
- PHY (phytotoxicity) (Giant Fox Tail [1]; [4]): 43%
- VIG (vigor) (Giant Fox Tail [1]; [4]): 50%
- CHL (chlorosis) (Giant Fox Tail [1]; [5]): 40%
- NEC (necrosis) (Giant Fox Tail [1]; [5]): 30%
- PHY (phytotoxicity) (Giant Fox Tail [1]; [5]): 40%
- VIG (vigor) (Giant Fox Tail [1]; [5]): 50%
- NEC (necrosis) (Giant Fox Tail [1]; [6]): 75%
- PHY (phytotoxicity) (Giant Fox Tail [1]; [6]): 75%
- VIG (vigor) (Giant Fox Tail [1]; [6]): 75%
- CHL (chlorosis) (Giant Fox Tail [1]; [7]): 73%
- PHY (phytotoxicity) (Giant Fox Tail [1]; [7]): 73%
- CHL (chlorosis) (Giant Fox Tail [1]; [8]): 65%
- NEC (necrosis) (Giant Fox Tail [1]; [8]): 63%
- PHY (phytotoxicity) (Giant Fox Tail [1]; [8]): 64%
- VIG (vigor) (Giant Fox Tail [1]; [8]): 63%
- CHL (chlorosis) (Giant Fox Tail [1]; [9]): 38%
- NEC (necrosis) (Giant Fox Tail [1]; [9]): 50%
- PHY (phytotoxicity) (Giant Fox Tail [1]; [9]): 30%
- VIG (vigor) (Giant Fox Tail [1]; [9]): 63%
- CHL (chlorosis) (Giant Fox Tail [1]; [10]): 43%
- NEC (necrosis) (Giant Fox Tail [1]; [10]): 65%
- PHY (phytotoxicity) (Giant Fox Tail [1]; [10]): 57%
- VIG (vigor) (Giant Fox Tail [1]; [10]): 63%
- CHL (chlorosis) (Giant Fox Tail [1]; [11]): 50%
- NEC (necrosis) (Giant Fox Tail [1]; [11]): 38%
- PHY (phytotoxicity) (Giant Fox Tail [1]; [11]): 48%
- VIG (vigor) (Giant Fox Tail [1]; [11]): 55%
- CHL (chlorosis) (Giant Fox Tail [1]; [12]): 60%
- NEC (necrosis) (Giant Fox Tail [1]; [12]): 60%
- PHY (phytotoxicity) (Giant Fox Tail [1]; [12]): 65%
- VIG (vigor) (Giant Fox Tail [1]; [12]): 75%
- CK (chlorosis) (Turnip; HYVAR 10% dose, High Enzyme): 50%
- NEC (necrosis) (Turnip; HYVAR 10% dose, High Enzyme): 85%
- PHY (phytotoxicity) (Turnip; HYVAR 10% dose, High Enzyme): 73%
- VIG (vigor) (Turnip; HYVAR 10% dose, High Enzyme): 83%
- CK (chlorosis) (Turnip; HYVAR 10% dose, Low Enzyme): 70%
- NEC (necrosis) (Turnip; HYVAR 10% dose, Low Enzyme): 90%
- PHY (phytotoxicity) (Turnip; HYVAR 10% dose, Low Enzyme): 84%
- VIG (vigor) (Turnip; HYVAR 10% dose, Low Enzyme): 93%
- CK (chlorosis) (Turnip; HYVAR 10% dose, No Enzyme): 70%
- NEC (necrosis) (Turnip; HYVAR 10% dose, No Enzyme): 93%
- PHY (phytotoxicity) (Turnip; HYVAR 10% dose, No Enzyme): 84%
- VIG (vigor) (Turnip; HYVAR 10% dose, No Enzyme): 90%
- CK (chlorosis) (Turnip; HYVAR 40% dose, High Enzyme): 97%
- NEC (necrosis) (Turnip; HYVAR 40% dose, High Enzyme): 97%
- PHY (phytotoxicity) (Turnip; HYVAR 40% dose, High Enzyme): 97%
- VIG (vigor) (Turnip; HYVAR 40% dose, High Enzyme): 98%
- CK (chlorosis) (Turnip; HYVAR 40% dose, Low Enzyme): 93%
- NEC (necrosis) (Turnip; HYVAR 40% dose, Low Enzyme): 95%
- PHY (phytotoxicity) (Turnip; HYVAR 40% dose, Low Enzyme): 94%
- VIG (vigor) (Turnip; HYVAR 40% dose, Low Enzyme): 95%
- CK (chlorosis) (Turnip; HYVAR 40% dose, No Enzyme): 65%
- NEC (necrosis) (Turnip; HYVAR 40% dose, No Enzyme): 73%
- PHY (phytotoxicity) (Turnip; HYVAR 40% dose, No Enzyme): 74%
- VIG (vigor) (Turnip; HYVAR 40% dose, No Enzyme): 85%
- CK (chlorosis) (Turnip; HYVAR 100% dose, No Enzyme): 100%
- NEC (necrosis) (Turnip; HYVAR 100% dose, No Enzyme): 95%
- PHY (phytotoxicity) (Turnip; HYVAR 100% dose, No Enzyme): 95%
- VIG (vigor) (Turnip; HYVAR 100% dose, No Enzyme): 90%
- kill (various plants): 100%
- CHL (chlorosis) (Giant Fox Tail [2]; High Enzyme): 75%
- NEC (necrosis) (Giant Fox Tail [2]; Low Enzyme): 73%
- VIG (vigor) (Giant Fox Tail [2]; Low Enzyme): 73%
